Assay results published in US20220008500A1, “COMPOSITIONS AND METHODS FOR TREATING HEART FAILURE” (The George Washington University, priority 2017, published 2022).
Values joined by “and” are separate entries in the source; they are usually repeats but may differ in a detail not shown here. Equal entries are not always repeated.

Experiments:
IL-1β = experiment: Western blot of LV myocardium, IL-1β; type: in vivo, Sprague-Dawley rats; conditions: CNO 1 mg/kg IP daily
Method: (§1) TAC+OXT and OXT NORM animals received intraperitoneal (IP) injections of CNO (1 mg/kg) daily, beginning at 5 weeks of age until the animal was sacrificed.
Samples of LV myocardium (n=5-6/group) were flash frozen in liquid nitrogen and stored at −80° C. For western blot analysis of protein expression, samples were thawed and homogenized using the Qproteome Mammalian Protein Prep Kit (Qiagen) in tubes containing metallic beads. Samples were then centrifuged at 14,000 g for 20 minutes and protein concentrations were determined by the Pierce BCA Protein Assay (Thermo Scientific). Laemmli buffer (Bio Rad) with 10% 2-mercaptoethanol (Sigma-Aldrich) was added to the samples and samples were heated to 98° C. Equal protein concentration was loaded into wells containing 4-20% Mini-PROTEAN® TGX™ Gels (Bio Rad). The samples were then run at 100V for 1-1.5 hours to separate proteins by electrophoresis.
After electrophoresis, the samples were transferred to PVDF membranes for 10 min at 25V using the Trans-Blot® Turbo™ Transfer System (Bio Rad). The membranes were blocked with 5% milk for 18 hours. […] Band intensities for collagen III and IL-10 were measured using ImageJ and normalized to the corresponding band intensity for GAPDH.

[1] = biological target: T1, DREADDs in PVN OXT neurons (Homo sapiens, UniProt P20309, A239G/Y149C)
Method: (§2) In this system one viral vector expresses Cre recombinase under an OXT promotor. The second vector expresses the excitatory hM3Dq DREADDs22. This is a Cre-dependent vector that has silencing double-floxed inverse open reading frames, which insures expression is only in OXT neurons that selectively express Cre. In each animal, 30-50 nl containing both viral vectors was selectively microinjected into the PVN over a 20 minutes period at 1 week of age.
Sprague-Dawley rats at 4 weeks of age that had DREADDS expression in PVN oxytocin neurons were anesthetized (isoflurane) and implanted with a telemetry device (HDX-11, DSI) with the pressure catheter inserted into the descending abdominal aorta to measure blood pressure (BP). The ECG leads of the device were inserted subcutaneously to measure HR. Rats were allowed to recover from this surgery for a week, followed by IP saline injections for 3 days to acclimate the animals to IP injections. […] One injection of one of the three solutions was administered each day on consecutive days.

[2] = biological target: T1, DREADDs in PVN OXT neurons; experiment: Anatomic measurements and histology of hearts after chronic activation of PVN OXT neurons; type: in vivo, Sprague-Dawley rats; design: expressed in transfected cells; host or cells: PVN oxytocin neurons of Sprague-Dawley rats, transduced in vivo with a Cre-dependent (double-floxed inverse ORF) viral vector plus an OXT-promoter Cre vector
Excerpt: Pressure overload induced LV hypertrophy was initiated in male Sprague-Dawley rats using a minimally invasive trans-ascending aortic constriction (TAC) procedure. Rats at one week of age were aestheticized by hypothermia and underwent TAC surgery. A 0.5 cm incision was made at the level of the chest, the chest was opened and the thymus was retracted to reveal the aorta. A 4-0 silk suture was passed around the ascending aorta, and with a 25-gauge needle temporarily placed adjacent to the aorta, the suture was tied around both the aorta and needle (TAC and TAC+OXT groups). The needle was then removed, leaving the constricting suture around the aorta. Buprenorphine was applied as an analgesic. Successful constriction was confirmed upon examination of the aorta after each animal was sacrificed.
as §2, with “Additionally, selective activation of DREADDs in PVN OXT neurons decreases both mean arterial pressure and HR in telemetry instrumented conscious unrestrained animals. […] In this” for “In this”
as §1
In a subset of animals, hearts were excised and cannulated via the aorta, flushed of blood, and weighed after clearing fluid from the chambers. The hearts were cut transversely, halfway between the apex and base, and the thickness of the LV free wall and septum were measured. The tissue was then preserved in 10% formalin for histology. Other hearts from each group were cannulated, flushed with high potassium solution, and then formalin-fixed via retrograde perfusion at constant pressure (60 mmHg). The hearts were cut longitudinally and preserved in 10% formalin for histology. All heart specimens were stained (H&E and Trichrome) to quantify cell size and collagen deposition. Average myocyte transverse cross-sectional (CS) area (μm^2) and the amount of fibrosis (μm^2) observed in a histological section were measured using ImageJ for at least three transverse slices from each heart.

[3] = acute activation of PVN OXT neurons by CNO, n=4
[4] = awake rats with DREADDs in PVN OXT neurons, CNO 1 mg/kg IP, acute
[5] = TAC rats with DREADDs, CNO 1 mg/kg IP daily, 8 weeks post-TAC, listed as TAC + OXT
[6] = TAC rats with DREADDs, CNO 1 mg/kg IP daily, 8 weeks post-TAC, listed as TAC+OXT
[7] = rats without TAC (OXT NORM), CNO 1 mg/kg IP daily

T1 sequence (P20309 whole entry Y149C/A239G): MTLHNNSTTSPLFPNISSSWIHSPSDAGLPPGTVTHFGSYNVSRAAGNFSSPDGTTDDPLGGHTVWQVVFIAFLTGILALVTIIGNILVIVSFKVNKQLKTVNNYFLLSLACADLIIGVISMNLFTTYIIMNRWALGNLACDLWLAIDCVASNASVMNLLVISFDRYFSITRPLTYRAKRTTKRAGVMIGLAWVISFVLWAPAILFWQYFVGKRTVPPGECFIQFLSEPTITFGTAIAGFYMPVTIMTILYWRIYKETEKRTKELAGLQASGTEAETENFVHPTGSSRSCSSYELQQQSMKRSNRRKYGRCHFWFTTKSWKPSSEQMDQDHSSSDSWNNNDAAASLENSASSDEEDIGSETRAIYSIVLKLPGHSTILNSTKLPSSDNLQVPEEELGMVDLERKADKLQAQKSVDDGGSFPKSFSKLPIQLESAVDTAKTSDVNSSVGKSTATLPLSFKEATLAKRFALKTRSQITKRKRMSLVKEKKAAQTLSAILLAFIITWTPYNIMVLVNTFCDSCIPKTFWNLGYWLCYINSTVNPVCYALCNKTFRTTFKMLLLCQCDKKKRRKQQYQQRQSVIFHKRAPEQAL

C[N+]1([O-])CCN(C2=Nc3cc(Cl)ccc3Nc3ccccc32)CC1 [CNO, clozapine N-oxide]
IL-1β expression (band intensity normalized to GAPDH) (IL-1β; TAC rats with DREADDs): 0.50±0.2 change from Control
IL-1β expression (band intensity normalized to GAPDH) (IL-1β; rats without TAC (OXT NORM)): 0.21±0.14 change from Control
Effect on BP (figure legend) [1, 3]: significantly reduced BP
Effect on HR (figure legend) [1, 3]: significantly reduced HR
Average reduction of HR [1, 4]: 56 bpm
Average reduction of blood pressure [1, 4]: 13 mmHg
Blood pressure after CNO ([1]; awake rats with DREADDs, CNO 1 mg/kg IP, before: 105.8±1.9 mmHg): 93.4±1.5 mmHg
HR after CNO ([1]; awake rats with DREADDs, CNO 1 mg/kg IP, before: 475.4±15.9 bpm): 419±12.4 bpm
Myocyte area (transverse cross-sectional area) ([2]; TAC rats with DREADDs, CNO 1 mg/kg IP daily from 5 weeks of age, 8 weeks post-TAC, listed as TAC + OXT): 584 ± 51^+ μm^2
Myocyte area (transverse cross-sectional area) ([2]; TAC rats with DREADDs, CNO 1 mg/kg IP daily from 5 weeks of age, 8 weeks post-TAC, listed as TAC+OXT): 601±23 μm^2
Body weight ([2]; TAC rats with DREADDs, CNO 1 mg/kg IP daily, 8 weeks post-TAC): 298 ± 17^ g
Fibrosis [2, 5]: 2407 ± 723^+ μm^2
Heart weight [2, 5]: 1.75 ± 0.21 g
LV wall thickness (LV free wall) [2, 5]: 5.53 ± 0.34 mm
Septum thickness [2, 5]: 3.99 ± 0.14 mm
Fibrosis [2, 6]: 2407±723 μm^2
Heart weight [2, 6]: 1.74 ± 0.2 g
LV wall thickness (LV free wall) [2, 6]: 5.22±0.3 mm
Septum thickness [2, 6]: 3.9±0.2 mm
Myocyte area (transverse cross-sectional area) ([2]; rats without TAC (OXT NORM) with DREADDs, CNO 1 mg/kg IP daily): 368±20 μm^2 and 365 ± 90 μm^2
Body weight [2, 7]: 357 ± 24 g
Fibrosis [2, 7]: 918±112 μm^2
Heart weight [2, 7]: 2.19 ± 0.2 g and 2.19 ± 0.17 g
LV wall thickness (LV free wall) [2, 7]: 3.69±0.1 mm and 3.69 ± 0.10 mm
Septum thickness [2, 7]: 3.18±0.1 mm and 3.18 ± 0.12 mm
